Data from PubChem BioAssay (NCI).
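Exposure lasted 48 hours, with cells grown in 96-well plates and compounds tested at five concentrations. Here, GI50 denotes the concentration required for 50% inhibition of growth. TGI marks complete inhibition of growth.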

Key:
Test in all cases: NCI-60 cell line screen, 48 h
[1] = test system: PC-3 prostate
[2] = test system: K-562 leukemia
[3] = test system: DU-145 prostate
[4] = test system: COLO 205 colon
[5] = test system: SN12C renal
[6] = test system: ACHN renal
[7] = test system: OVCAR-5 ovarian
[8] = test system: UO-31 renal
[9] = test system: NCI-H226 lung
[10] = test system: HT29 colon
[11] = test system: HOP-92 NSCLC
[12] = test system: NCI-H23 lung
[13] = test system: SF-295 CNS
[14] = test system: SK-MEL-5 melanoma
[15] = test system: UACC-62 melanoma
[16] = test system: OVCAR-3 ovarian
[17] = test system: SK-MEL-2 melanoma
[18] = test system: SK-MEL-28 melanoma
[19] = test system: HCT-15 colon
[20] = test system: UACC-257 melanoma
[21] = test system: HCC-2998 colon
[22] = test system: SW-620 colon
[23] = test system: T-47D breast
[24] = test system: SK-OV-3 ovarian
[25] = test system: EKVX NSCLC
[26] = test system: MCF7 breast
[27] = test system: MALME-3M melanoma
[28] = test system: MDA-MB-435
[29] = test system: OVCAR-4 ovarian
[30] = test system: SF-539 CNS
[31] = test system: A498 renal
[32] = test system: NCI-H460 lung
[33] = test system: CAKI-1 renal
[34] = test system: CCRF-CEM leukemia
[35] = test system: SNB-19 CNS
[36] = test system: SF-268 CNS
[37] = test system: KM12 colon
[38] = test system: SNB-75 CNS
[39] = test system: MDA-MB-231 breast
[40] = test system: M14 melanoma
[41] = test system: LOX IMVI melanoma
[42] = test system: HL-60(TB) leukemia
[43] = test system: HOP-62 NSCLC
[44] = test system: RPMI-8226 leukemia
[45] = test system: BT-549 breast
[46] = test system: MOLT-4 leukemia
[47] = test system: SR leukemia
[48] = test system: NCI-H522 lung
[49] = test system: IGROV1 ovarian
[50] = test system: 786-0 renal
[51] = test system: U251 CNS
[52] = test system: NCI/ADR-RES ovarian
[53] = test system: A549 NSCLC
[54] = test system: OVCAR-8 ovarian
[55] = test system: HS 578T breast
[56] = test system: HCT-116 colon

`COc1cc(C2CC(c3cccc(Nc4ccncc4)c3)=NN2c2ccc(Cl)cc2)cc(OC)c1OC` (centres undefined) was tested, and the GI50 [1] was 1.4 µM, the TGI [1] was 3 µM and the GI50 [2] was 1.81 µM. The TGI [2] was 4.71 µM, the GI50 [3] was 1.78 µM and the TGI [3] was 3.17 µM. It also gave a GI50 [4] of 2.12 µM, a TGI [4] of 4.79 µM and a GI50 [5] of 1.54 µM. It also gave a TGI [5] of 2.95 µM, a GI50 [6] of 1.54 µM and a TGI [6] of 2.88 µM. The GI50 [7] was 1.66 µM, the TGI [7] was 3.13 µM and the GI50 [8] was 1.15 µM. The TGI [8] was 2.37 µM, the GI50 [9] was 1.66 µM and the TGI [9] was 3.59 µM. It also gave a GI50 [10] of 1.87 µM, a TGI [10] of 4.82 µM and a GI50 [11] of 1.25 µM. For the same molecule, the TGI [11] was 2.7 µM, the GI50 [12] was 1.67 µM and the TGI [12] was 3.28 µM. The GI50 [13] was 1.68 µM, the TGI [13] was 3.05 µM and the GI50 [14] was 1.75 µM. The TGI [14] was 3.14 µM, the GI50 [15] was 1.69 µM and the TGI [15] was 3.14 µM. For the same molecule, the GI50 [16] was 1.61 µM, the TGI [16] was 3.03 µM and the GI50 [17] was 1.89 µM. For the same molecule, the TGI [17] was 3.91 µM, the GI50 [18] was 1.68 µM and the TGI [18] was 3.12 µM. For the same molecule, the GI50 [19] was 1.7 µM, the TGI [19] was 3.28 µM and the GI50 [20] was 1.96 µM. It also gave a TGI [20] of 3.84 µM, a GI50 [21] of 1.54 µM and a TGI [21] of 2.91 µM. The GI50 [22] was 1.68 µM, the TGI [22] was 3.19 µM and the GI50 [23] was 1.79 µM. The TGI [23] was 4.23 µM, the GI50 [24] was 1.77 µM and the TGI [24] was 3.43 µM. For the same molecule, the GI50 [25] was 1.46 µM, the TGI [25] was 2.88 µM and the GI50 [26] was 1.72 µM. The TGI [26] was 3.61 µM, the GI50 [27] was 1.66 µM and the TGI [27] was 3.11 µM. The GI50 [28] was 1.62 µM, the TGI [28] was 3.08 µM and the GI50 [29] was 1.62 µM. The TGI [29] was 3.08 µM, the GI50 [30] was 1.64 µM and the TGI [30] was 3.05 µM. The GI50 [31] was 1.32 µM, the TGI [31] was 6.26 µM and the GI50 [32] was 1.69 µM. The TGI [32] was 3.13 µM, the GI50 [33] was 1.41 µM and the TGI [33] was 2.76 µM. The GI50 [34] was 2.39 µM, the TGI [34] was 6.71 µM and the GI50 [35] was 1.55 µM. The TGI [35] was 2.91 µM, the GI50 [36] was 1.58 µM and the TGI [36] was 3.06 µM. It also gave a GI50 [37] of 1.67 µM, a TGI [37] of 3.31 µM and a GI50 [38] of 1.28 µM. For the same molecule, the TGI [38] was 2.85 µM.
In the case of `COc1ccc(-c2nc3ncccn3c2-c2ccc(SC)cc2)cc1`, the TGI [1] is reported as over 100 µM, the TGI [39] is reported as over 100 µM and the TGI [2] is reported as over 100 µM. For the same molecule, the TGI [40] was 12.2 µM, the TGI [41] was 80.4 µM and the TGI [42] was 6.61 µM. For the same molecule, the TGI [43] was 44.3 µM, the TGI [4] was 3.31 µM and the TGI [44] was 29.2 µM. The TGI [45] was 46.5 µM, the TGI [5] was over 100 µM and the TGI [46] was over 100 µM. The TGI [6] was 41 µM, the TGI [7] was 7.06 µM and the TGI [8] was 66.6 µM. The TGI [10] was 28.1 µM, the TGI [47] was 10.6 µM and the TGI [11] was 70.4 µM. For the same molecule, the TGI [48] was 0.502 µM, the TGI [12] was over 100 µM and the TGI [13] was 3 µM. The TGI [14] was 4.29 µM, the TGI [15] was 13 µM and the TGI [16] was 2.09 µM. It also gave a TGI [17] of over 100 µM, a TGI [18] of over 100 µM and a TGI [19] of over 100 µM. For the same molecule, the TGI [49] was 8.15 µM, the TGI [50] was 46 µM and the TGI [20] was over 100 µM. The TGI [51] was 29 µM, the TGI [22] was over 100 µM and the TGI [52] was 5.24 µM. It also gave a TGI [53] of 9.88 µM, a TGI [24] of 2.85 µM and a TGI [54] of over 100 µM. It also gave a TGI [28] of 0.499 µM, a TGI [29] of over 100 µM and a TGI [30] of 5.85 µM. For the same molecule, the TGI [32] was 7.87 µM, the TGI [33] was 4.96 µM and the TGI [55] was 7.7 µM. It also gave a TGI [34] of over 100 µM, a TGI [35] of 5.94 µM and a TGI [36] of 3.15 µM. It also gave a TGI [37] of 13.3 µM, a TGI [38] of over 100 µM and a TGI [56] of 5.15 µM.
